Source: patent US5792457A, “Antibody recognizing endothelial cell ligand for leukocyte CR3” (priority 1995, dated 1998)

What was measured:
[1] = tested on: neutrophil adherence to human umbilical vein endothelial cells (HUVEC); assay: Adherence of neutrophils to cultured (TNF alpha stimulated) endothelial cells; format: cell-based
Protocol: FIG. 17 is a bar graph representation of the inhibition of neutrophil adherence to activated endothelial cells by FHA, Factor X- and FHA- derived peptides. The concentration of inhibiting substances was: peptides 0.5 mM, native FHA 0.3 μM. Values represent the mean±standard deviation of 4 experiments with 5 wells/peptide.
FIG. 18 is a graphical representation of the FHA, FHA- or Factor X-peptide concentration effects on the inhibition of neutrophil adherence to activated endothelial cells. FHA peptide II monomer (Square) and trimer (Diamond), Factor X peptide II (Circle) at 10^-9 μM to 0.5 mM; native FHA at 10^-6 to 3×10^2 μM (triangle). Values represent the mean of 3 experiments with 5 wells/peptide (standard deviations <15%).
FIG. 25 is a graphical representation of the inhibition of neutrophil adherence to activated endothelial cells by FHA and FHA peptides. FIG. 25A: Peptide concentrations were 0.5 mM (FHA 0.2 μM). Values represent mean±standard deviation of four experiments with 5 wells/peptide; FIG. 25B represents the mean±standard deviation of triplicate experiments with 5 wells/peptide. Native FHA (.quadrature.); FHA peptide Ca (.largecircle.).
Human umbilical vein endothelial cells (HUVEC, first passage, Clonetics, San Diego, Calif.) were subcultured at confluence into Terasaki tissue culture wells. After 24 hours, confluent monolayers were used for adherence assays. Monolayers were stimulated with 10 ng/ml TNF alpha (Boehringer Mannheim, Indianapolis, Ind.) at 37° C. for four hours. 30 μl of human neutrophils (10^6 /ml) were labeled with fluorescein by the method of Lo et al. (1991), J. ExP. Med. 173 1493-1500, and preincubated for 15 minutes at 37° C. with 20 μl of peptides (0.5 mM in HAP) or HAP (phosphate buffered saline containing 0.5 mg/ml human serum albumin, 3 mM glucose, and 0.3 U/ml aprotinin) as a control buffer. For some experiments, endothelial cells were pretreated from 10 minutes with Factor X or antibodies against Factor X receptor (EPR-1; Altieri et al. (1990), J. Immunol. 145, 246-253) 12H1 and 9D4 (obtained from Dr. D. Altieri, Scripps Research Institute, LaJolla, Calif.) and then washed. Neutrophils were allowed to adhere to the monolayer for 15 mins. at 37° C. and unbound cells were removed by submersion of the plate in PBS buffer. The number of adherent neutrophils was counted in a 40× microscope field and expressed as a percentage of adherence in control wells with neutrophils treated with HAP buffer alone. The mAb IB4 against CD18 (50 μg/ml; Merck Inc., Rahway, N.J.) served as a positive control.
The ability of FHA peptides and anti-CD18 or anti-Factor X receptor antibodies to interact cooperatively to inhibit neutrophil adherence to endothelial cells was assessed by measuring neutrophil adherence to endothelial cells in the presence of antibody as well as antibody plus peptide. […] Anti-Factor X receptor mAb 12H1 (10 μl of ascites) or 9D4 (10 μg/ml) were added to the endothelial cell monolayers 10 min before the assay. The peptides were added at 5 μg/ml. The results are shown in Table 8 where the numerical values are in % of control binding.
(§1) The procedures for determining the neutrophil adherence to cultured endothelial cells and the transendothelial migration of neutrophils were identical with those of Example 9. Control values were the same as those shown in Example 9.

[2] = tested on: Factor Xa procoagulant activity on THP-1 cells; assay: Generation of Factor Xa by monocytes (THP-1), clotting assay; format: cell-based; conditions: for Factor Xa / Clotting time: peptides 0.5 mM; for reduction of Factor Xa production: 0.5 mM, vs scrambled FHA II, 20 min; for Clotting time: mean ± SD of at least 3 experiments
Protocol: Factor Xa generation was determined by a modification of the method of Miletich et al. (1978), J. Biol. Chem. 253: 6908-6916. THP-1 cells (ATCC; […]) resuspended in RPMI 1640 (Bio Whittaker, Walkersville,Md.) were incubated with 100 μM ADP (Sigma), 2.5 mM CaC2, 1 or 5 μg/ml Factor X (Hematologic Technologies Inc.) and 0.5 mM peptides at room temperature. After 20 minutes, 100 μl of the reaction mixture was transferred to 37° C. and supplemented with 100 μl of bovine factor VII- and Factor X-deficient plasma (Sigma). Coagulation was initiated by adding 100 μl of 25 mM CaC2 and the clotting time was determined. Factor Xa procoagulant activity (ng/ml) was calculated by means of a standard curve constructed by serial concentrations of Factor Xa (Hematologic Technologies Inc.) from 50 to 250 ng/ml.

[3] = tested on: recognition of C3bi by antibody 12.1F9; assay: Inhibition of binding of 12.1F9 to E^C3bi by peptides; parameters: species or system human; conditions: peptides 50 μg/ml; for Adherence index: normalized to control value of 100, 6 experiments
Text: Values are normalized to a control value of 100; data are expressed as the mean±SD of 6 experiments with duplicate wells.

[4] = tested on: transendothelial migration of human neutrophils through HUVEC monolayers; assay: Transendothelial migration (TEM) of neutrophils; format: cell-based; conditions: peptides 0.01 mM, native FHA 1 μM; at least 3 experiments with 6 wells/peptide
Text: FIG. 26 is a graphical representation of the inhibition of transendothelial migration of neutrophils by FHA peptide Ca, native FHA and mAb IB4 in a concentration dependent fashion. FHA peptide Ca (.largecircle.); intact FHA (.quadrature.); and mAb IB4 (.tangle-solidup.). Values represent mean±standard deviation of at least 3 experiments with 6 wells/peptide.
Transendothelial migration of neutrophils was studied based on a method described by Muller et al. (1992), J. Exp. Med. 176: 819-828. Briefly, human neutrophils suspended in ice-cold Hanks balanced salt solution (HBSS) containing Ca^++ and Mg^++ (Sigma) were fluoresceinated by adding 3.3 μl/ml 5-(and 6-)carboxyfluorescein diacetate, succinimidyl ester (CFSE, Molecular Probes Inc., Oreg.). After incubation for 30 mins. on ice, neutrophils were washed twice in cold HBSS with Ca^++ and Mg^++ and resuspended in cold Medium 199 (M199, Sigma) to a final concentration of 10^6 /ml. Human umbilical vein endothelial cells were subcultured at confluence into 96-well tissue culture plates (Becton Dickinson Labware, Lincoln Park, N.J.) that were coated with hydrated collagen gel (Vitrogen; Collagen Corporation, Palo Alto, Calif.) and fibronectin. Endothelial cells were stimulated with 10 ng/ml TNF-alpha for 4 hours and washed three times with warm M199. Neutrophils (10^6 /ml) were preincubated with 0.01 mM of peptides or with 1 μM of native FHA in M199 for 5 mins. on ice before they were added in 100 μl aliquots to the endothelial cells. For positive control, neutrophils were pre-incubated with 25 μg/ml anti-CD18 mAb IB4. For negative control, neutrophils were treated with 25 μg/ml mAb W6/32 against HLA class I antigen (Dako, Carpinteria, Calif.). The cells were incubated for 1 hour at 37° C., 5% CO2. To terminate transmigration, the supernatant fluid was aspirated and the wells were filled with warm 1 mM EGTA (Sigma) in HBSS without Ca and Mg. The plates were covered with plate sealers (Dynatech, Alexandria, Va.) and centrifuged in an inverted position at 250 g for 3 mins. at room temperature. To remove residual non-transmigrated neutrophils from the endothelial cells, monolayers were washed twice with 200 μl of warm Hanks solution without Ca and Mg. Fluorescence was quantitated using a fluorescence counter (Millipore Cytofluorm™ 2300). The percentage of transmigrated neutrophils was determined by comparing the amount of fluorescence of test wells with that measured in collagen- and fibronectin-coated wells without endothelial cells. […] Percent inhibition of transendothelial migration of neutrophils was calculated by comparing the number of transmigrated cells in wells containing neutrophils treated with peptide to neutrophils treated with M199 alone and arbitrarily set at 100% transendothelial migration (TEM).
as §1

[5] = tested on: CSF leukocytosis; assay: Rat meningitis model (LOS): CSF leukocytosis; format: in vivo, female Wistar rats; conditions: 4 hours after LOS
Protocol: The experiments were performed according to established protocols (Wispelway et al., 1988, J. Clin. Invest., 82: 1339-1346). Purified Haemophilus influenzae type b strain DL42 lipooligosaccharide (LOS) was prepared for inoculation by sonication for 30 minutes, dilution to the desired concentration (20 ng/50 μl) in normal saline or PBS, and sonication for an additional 15 to 30 minutes just prior to use.
(§2) Briefly, anesthetized female Wistar rats were placed under a micromanipulator and inoculated intracisternally with a 25 gauge needle. After removal of 50 μl of CSF (without visible blood contamination), rats were inoculated intracisternally with 50 μl (20 ng) of LOS using a 1 ml syringe with a 25 gauge needle. Ten to fifteen minutes after inoculation with LOS, the rats were treated by intravenous administration of the test substance: a solution of an FHA peptide in PBS, a solution of a control peptide in PBS, or an equal volume of PBS alone.
(§3) Three hours after LOS inoculation, 5 μCi of ^125 I-radiolabelled albumin in 50 μl normal saline was administered intravenously. One hour later, CSF was collected via intracisternal puncture and blood samples were collected via intracardiac puncture. CSF leukocytosis was determined by manually counting white blood cells using a hemacytometer, and blood-brain barrier permeability was determined as the percent of radioactivity in whole blood that was present in the CSF. Blood samples were obtained immediately prior to inoculation, immediately prior to treatment, and at 4 hours post-inoculation for determination of peripheral white blood cell concentrations.

[6] = tested on: B. pertussis; conditions: in vivo; cited from earlier work
[7] = tested on: blood-brain barrier permeability; assay: Rat meningitis model (LOS): blood-brain barrier permeability (125I-albumin); format: in vivo, female Wistar rats; conditions: 100 nmol; percent of radioactivity in whole blood present in CSF
Protocol: as §2, §3

[8] = tested on: Factor X binding to CR3; conditions: cited from earlier work

FHA peptide A: synthetic peptide, residues 1055-1099, SEQ ID NO: 20 (IGALKAGAVEAASPRRARRALRQDFFTPGSVVVRAQGNVTVGRGD; UniProt P12255 1055-1099, looked up, fragment)
inhibition of neutrophil adherence ([1]; 45/50-mer peptides, FHA peptide C 1 mg/ml, 0.2 mM): < 15%

CC(=O)N[C@@H](CC(C)C)C(=O)N[C@@H](CC(C)C)C(=O)N[C@H](C=O)CCCNC(=N)N [Leupeptin, reference compound]
Factor Xa [2]: < 10.0 ng/mL

VTVGRGDPAQG [FHA RGD]
Adherence index [3]: 85 ± 9

GRTRG (UniProt P12255 32-36, looked up, fragment) [FHA III]
% Inhibition of TEM [4]: 5 ± 6% | inhibition of neutrophil adherence (in words) ([1]; peptides 0.5 mM (Example 9)): less effective than the corresponding Factor X derived peptide | reduction of Factor Xa production [2]: 74% | Factor Xa [2]: 43.4 ng/mL | Clotting time [2]: 36.2 ± 2.7 s

Ac-VEEDTKG-NH2 [scrambled ac/am FHA II, VEEDTKG]
Leukocytosis (CSF) ([5]; 600 nmol i.v.): 14,287 ± 10,199 cells/ml | Leukocytosis (CSF) ([5]; 600 nmol i.v., listed as control peptide (scrambled ac/am FHA II)): approximately 14,000 cells/ml

YTVAIAGYALA [C3-pep 1187-1197]
block of binding of 12.1F9 to E^C3bi [3]: up to 60% | Adherence index [3]: 30 ± 16

YTVSADAIALA [FHA 1408-1418]
block of binding of 12.1F9 to E^C3bi [3]: up to 60% | Adherence index [3]: 21 ± 11

OC[C@H]1O[C@@H](O[C@H]2[C@H](O)[C@@H](O)C(O)O[C@@H]2CO)[C@H](O)[C@@H](O)[C@H]1O (stereo partly drawn) [Lactose]
colonization of rabbit lung (in words) [6]: decrease colonization of rabbit lung

GLIQGRSVKVD [FHA Ib]
% Inhibition of TEM [4]: 7 ± 10% | reduction of Factor Xa production [2]: 81% | Factor Xa [2]: 31.3 ng/mL | Clotting time [2]: 38.0 ± 7.6 s

IDVPQHGGAMRDLGIAQGKD [scrambled FHA Ca]
BBB permeability [7]: 6.74 ± 3.48% | Leukocytosis (CSF) ([5]; 100 nmol i.v.): 20,700 ± 7,400 cells/ml | Leukocytosis (CSF) ([5]; 100 nmol i.v., listed as control peptide (scrambled FHA Ca)): approximately 20,000 cells/ml

IDRSMKTRG [Factor X III]
% Inhibition of TEM [4]: 5 ± 7% | inhibition of binding of CR3 bearing cells to Factor X (in words) [8]: competitively inhibit the binding of CR3 bearing tissue culture cells to purified Factor X | effect on Factor Xa generation (in words) [2]: substantial reduction that did not reach statistical significance | Factor Xa [2]: 107.5 ng/mL | Clotting time [2]: 26.5 ± 2.4 s

GLYQAKRFKVG [Factor X I]
% Inhibition of TEM [4]: 10 ± 6% | inhibition of binding of CR3 bearing cells to Factor X (in words) [8]: competitively inhibit the binding of CR3 bearing tissue culture cells to purified Factor X | effect on Factor Xa generation (in words) [2]: substantial reduction that did not reach statistical significance | Factor Xa [2]: 37.8 ng/mL | Clotting time [2]: 37.0 ± 4.0 s

TRYRGDQDATMS [C3/12, reference compound]
Adherence index [3]: 127 ± 27
